Experimental data from patent publication US10259779B2 (WAYNE STATE UNIVERSITY, priority 2016, dated 2019).

Columns and labels:
[1] = biological target: T1, HDAC6 (Homo sapiens, UniProt Q9UBN7); assay: ELISA-based HDAC activity assay, HDAC6; details: for HDAC6 fold selectivity HDAC1: HDAC6 over HDAC1; for HDAC6 fold selectivity HDAC1 / HDAC6 fold selectivity HDAC2 / HDAC6 fold selectivity HDAC3: calculated from IC50 values; for HDAC6 fold selectivity HDAC2: HDAC6 over HDAC2; for HDAC6 fold selectivity HDAC3: HDAC6 over HDAC3
T1 sequence (Q9UBN7 1-1215): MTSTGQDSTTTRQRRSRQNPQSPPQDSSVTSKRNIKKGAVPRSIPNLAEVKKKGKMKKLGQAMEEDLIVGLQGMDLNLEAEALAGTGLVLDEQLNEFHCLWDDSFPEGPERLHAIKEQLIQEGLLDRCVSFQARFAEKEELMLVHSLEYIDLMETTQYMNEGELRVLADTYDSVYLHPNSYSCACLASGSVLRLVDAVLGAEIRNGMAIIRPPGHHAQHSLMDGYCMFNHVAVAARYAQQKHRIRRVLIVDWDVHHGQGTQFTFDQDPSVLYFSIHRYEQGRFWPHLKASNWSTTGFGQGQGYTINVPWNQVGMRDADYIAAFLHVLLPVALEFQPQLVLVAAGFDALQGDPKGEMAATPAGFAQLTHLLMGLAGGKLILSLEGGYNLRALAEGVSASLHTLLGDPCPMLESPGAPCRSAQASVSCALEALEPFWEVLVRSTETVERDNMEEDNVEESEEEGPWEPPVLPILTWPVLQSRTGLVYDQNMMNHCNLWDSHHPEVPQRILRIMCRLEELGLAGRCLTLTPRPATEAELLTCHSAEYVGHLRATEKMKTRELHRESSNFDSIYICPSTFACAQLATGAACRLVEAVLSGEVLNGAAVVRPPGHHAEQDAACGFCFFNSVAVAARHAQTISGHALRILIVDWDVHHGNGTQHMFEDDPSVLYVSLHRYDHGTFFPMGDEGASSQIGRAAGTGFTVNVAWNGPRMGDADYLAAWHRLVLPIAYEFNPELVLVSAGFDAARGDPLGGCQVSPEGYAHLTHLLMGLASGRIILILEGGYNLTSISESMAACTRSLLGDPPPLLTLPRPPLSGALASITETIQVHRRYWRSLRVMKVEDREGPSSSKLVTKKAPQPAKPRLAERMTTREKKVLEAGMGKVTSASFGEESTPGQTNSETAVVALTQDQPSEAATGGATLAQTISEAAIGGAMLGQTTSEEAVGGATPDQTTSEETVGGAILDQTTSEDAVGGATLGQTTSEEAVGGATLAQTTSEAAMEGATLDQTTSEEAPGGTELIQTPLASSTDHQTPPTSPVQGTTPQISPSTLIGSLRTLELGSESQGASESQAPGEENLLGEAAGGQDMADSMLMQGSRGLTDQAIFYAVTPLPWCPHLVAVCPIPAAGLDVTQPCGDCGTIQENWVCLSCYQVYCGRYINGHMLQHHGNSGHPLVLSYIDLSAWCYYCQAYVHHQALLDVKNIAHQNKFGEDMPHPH

[2] = tested on: U937 cells; assay: In vitro cell growth inhibition, MTT assay, U937; type: cell-based; details: Homo sapiens, U-937, U937 cell line
[3] = in vitro; details: human, Jurkat cells (leukemia cell line)
[4] = tested on: acetyl-α-tubulin (HDAC6 substrate) in U937 cells; assay: In cellulo selectivity testing, western blot of acetyl-α-tubulin; type: cell-based; details: 18 hours, SAHA 5 μM, 1f 20-60 μM, compared to DMSO control
[5] = read-out: Deacetylase activity (%) HDAC6

SMILES	IC50 [1]	HDAC6 fold selectivity HDAC1 [1]	HDAC6 fold selectivity HDAC2 [1]	HDAC6 fold selectivity HDAC3 [1]	activity at 0.05 µM [1, 5]	activity at 0.1 µM [1, 5]	activity at 0.2 µM [1, 5]	activity at 0.4 µM [1, 5]	activity at […] [1, 5]	EC50 [2]	viability at 44 h, 1 µM [3]	viability at 44 h, 10 µM [3]	activity at 1.25 µM [1, 5]	levels of acetyl-α-tubulin (AcTub), western blot [4]	activity at 5 µM [1, 5]
CCC(CCCC(=O)Nc1ccccc1)CCC(=O)NO (racemic) [Compound 1b, 4-ethyl-N^1-hydroxy-N^8-phenyloctanediamide]	160 ± 10 nM	28 fold	31 fold	38 fold	74 ± 7%	61 ± 6%	43 ± 5%	33 ± 3%	80 ± 8%						
CCCCCCC(CCCC(=O)Nc1ccccc1)CCC(=O)NO (racemic) [Compound 1d, 4-hexyl-N^1-hydroxy-N^8-phenyloctanediamide]	140 ± 10 nM	250 fold	270 fold	210 fold	75 ± 6%	56 ± 4%	42 ± 4%	27 ± 2%	77 ± 9%	16000 nM	69 ± 4%	39 ± 6%	21 ± 2%		
O=C(CCC(CCCC(=O)Nc1ccccc1)Cc1ccccc1)NO (racemic) [Compound 1f, 4-benzyl-N^1-hydroxy-N^8-phenyloctanediamide]	140 nM	210 fold	270 fold	300 fold	76 ± 5%	60 ± 4%	45 ± 5%	18 ± 4%	90 ± 7%	28000 nM	89 ± 20%	97 ± 4%		dose-dependent increase	2.9 ± 0.5%
